Results on 24 molecules are retold here after article PMC8881063 (Journal of Enzyme Inhibition and Medicinal Chemistry, 2022).

In one series the target is T1, MAO-B (Homo sapiens, UniProt P27338).
T1 sequence (P27338 1-520): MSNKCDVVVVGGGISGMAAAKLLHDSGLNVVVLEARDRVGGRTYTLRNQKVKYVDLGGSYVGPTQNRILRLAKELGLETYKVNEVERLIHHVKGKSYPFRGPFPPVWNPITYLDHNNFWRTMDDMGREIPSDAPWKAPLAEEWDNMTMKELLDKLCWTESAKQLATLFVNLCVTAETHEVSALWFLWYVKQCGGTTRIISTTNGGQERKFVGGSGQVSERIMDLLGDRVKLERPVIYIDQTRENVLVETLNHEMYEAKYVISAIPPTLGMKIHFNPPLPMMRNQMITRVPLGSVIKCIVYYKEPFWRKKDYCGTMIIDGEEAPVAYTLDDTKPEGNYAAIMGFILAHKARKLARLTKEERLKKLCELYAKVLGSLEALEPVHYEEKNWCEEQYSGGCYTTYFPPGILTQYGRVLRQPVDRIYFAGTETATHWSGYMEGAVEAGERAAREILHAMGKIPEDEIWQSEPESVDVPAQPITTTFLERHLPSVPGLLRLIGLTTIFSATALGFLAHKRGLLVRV
As to the kind of experiment: hMAO-B inhibition, spectrophotometric assay. The conditions noted are these: for inhibition at 10 µM: read-out: MAO-B % Inhibition, single dose concentration of 10 µM; for Selectivity index for inhibition of MAO-B: IC50 MAO-A divided by IC50 MAO-B.

The target of a further series is T2, recombinant human MAO-A (Homo sapiens, UniProt P21397).
T2 sequence (P21397 1-527): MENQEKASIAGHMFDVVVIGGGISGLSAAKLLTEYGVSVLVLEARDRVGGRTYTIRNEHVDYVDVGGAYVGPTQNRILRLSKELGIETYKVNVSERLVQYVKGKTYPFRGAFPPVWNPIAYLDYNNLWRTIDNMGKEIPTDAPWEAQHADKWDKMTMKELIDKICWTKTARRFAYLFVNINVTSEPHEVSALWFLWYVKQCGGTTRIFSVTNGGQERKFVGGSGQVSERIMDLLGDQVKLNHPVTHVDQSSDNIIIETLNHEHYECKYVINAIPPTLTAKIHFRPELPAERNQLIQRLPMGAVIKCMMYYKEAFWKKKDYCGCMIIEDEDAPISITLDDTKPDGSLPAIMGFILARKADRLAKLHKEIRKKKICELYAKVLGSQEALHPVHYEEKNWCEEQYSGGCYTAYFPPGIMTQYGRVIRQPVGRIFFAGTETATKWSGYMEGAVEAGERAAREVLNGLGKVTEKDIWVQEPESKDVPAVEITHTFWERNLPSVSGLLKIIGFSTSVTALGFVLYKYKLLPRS
As to the kind of experiment: hMAO-A inhibition, spectrophotometric assay. The series is classed as biochemical. The conditions noted are these: for inhibition at 10 µM: single dose concentration of 10 µM. The text has this: Two different MAO isoforms are known.

For another series, the system named is BV2 cells. As to the kind of experiment: BV2 cell viability, WST-1 assay. Format: cell-based. The conditions noted are these: doses of 1, 10, 30 and 50 µM. The text has this:
Promising antineurodegenrative candidate molecules should not impair viability of CNS cells. Microglia are critical cells within CNS involved in microglia–neuron communications and are responsible for maintenance of brain integrity and health[61]^,[62]. However, under neuroinflammatory conditions, aberrant activation of microglia contributes to neurodegeneration and disease progression. In this regard, suppression of the abnormal activation while maintenance of viability of microglia is important considerations. […] The viability assay was carried out using the water-soluble tetrazolium reagent WST-1 which eliminates the formazan dissolution step requested in case of MTT[65] employing multiple doses of 1, 10, 30, and 50 µM. […] In lieu of this, it might be inferred that these compounds showing effective inhibition of MAO-B activity and triggering no impairment of microglia viability are good candidates might be advanced for further evaluation towards the development of multifunctional molecules for neurodegenerative diseases such as PD.
The impact of the compounds on the viability of cells was performed by the well-known WST-1 assay method as described in the Supporting information.
Background: Tetrazolium assays rely on reduction of a dye to a coloured formazan, in cell work by metabolically active cells.

Series [1] deals with LPS-treated BV2 cells (PGE2 production). As to the kind of experiment: LPS-induced production of PGE2 in BV2 cells. Format: cell-based. The note with it: different concentrations, Figure 3(B). The protocol: (§1) Neuroinflammation is a crucial component in neurodegenerative diseases. Chronic activation of microglia, which are the brain-resident form of macrophages, results in sustained production of several proinflammatory mediators including glial NO, PGE2, and others molecules that are implicated in multiple neurodegenerative diseases. […] In this regard, LPS-treated BV2 cells were incubated with or without different concentrations of each compound. […] Based on collective results of antineuroinflammatory activity evaluation, in conjugation with above-conducted MAO inhibitions’ assays, compound 1p might be claimed as a promising lead compound eliciting polypharmacological effects combining inhibition of neuroinflammation and MAO-B activity; both processes are crucial components of neurodegenerative diseases such as PD.
(§2) The abilities of compounds to inhibit the induced production of NO and PGE2 were assessed by well-known protocol as indicated in the Supporting information.

In series [2] the test system is LPS-treated BV2 cells (NO production). Kind of series: LPS-induced production of nitric oxide in BV2 cells. The series is classed as cell-based. The note with it: different concentrations, Figure 3(A). The protocol:
as §1, §2

Experimental for MAO-B: The inhibitory activities of the compounds against hMAO-A and hMAO-B enzymes were evaluated referring to a previously described method (Supporting information)[49].

Turning to `O=C1/C(=C/c2ccccc2O)Oc2cc(O)ccc21` [Compound 1a], at MAO-B, the IC50 is > 10 µM and the inhibition at 10 µM was < 50%. At recombinant human MAO-A, the IC50 was > 10 µM and the inhibition at 10 µM turned out to be 9.02%.
For the molecule `O=C1/C(=C/c2cccc(O)c2)Oc2cc(O)ccc21` [Compound 1b], on MAO-B, the IC50 is > 10 µM and the inhibition at 10 µM was determined as 13.6%. Besides, on recombinant human MAO-A, the IC50 was > 10 µM and the inhibition at 10 µM worked out at 16.6%.
On to `O=C1/C(=C/c2cccc(O)c2O)Oc2cc(O)ccc21` [Compound 1c, (Z)-2–(2,3-Dihydroxybenzylidene)-6-hydroxybenzofuran-3(2H)-one], for which, at MAO-B, the IC50 came out at 3 µM, the “Selectivity index for inhibition of MAO-B” value is on record as >3.34 and the inhibition at 10 µM came out at 58.9%. Besides, at recombinant human MAO-A, the IC50 was > 10 µM and the inhibition at 10 µM was 46.2%.
For the molecule `O=C1/C(=C/c2ccc(O)cc2O)Oc2cc(O)ccc21` [Compound 1d], on MAO-B, the 50% inhibitory concentration (IC50) is > 10 µM and the inhibition at 10 µM stood at 48.3%. On recombinant human MAO-A, the half-maximal inhibitory concentration (IC50) is > 10 µM and the inhibition at 10 µM came out at 44.1%.
In the case of `O=C1/C(=C/c2ccc(O)c(O)c2)Oc2cc(O)ccc21` [Compound 1e], at MAO-B, the midpoint of inhibition, the IC50, lay at 2.41 µM; the “Selectivity index for inhibition of MAO-B” value is 1.93; the inhibition at 10 µM worked out at 61.8%. In addition, at recombinant human MAO-A, the IC50 turned out to be 4.66 µM and the inhibition at 10 µM was found to be 64.9%.
Take `O=C1/C(=C/c2cc(O)ccc2O)Oc2cc(O)ccc21` [Compound 1f]: at MAO-B, half-maximal inhibition (IC50) was put at 3.52 µM, the “Selectivity index for inhibition of MAO-B” value is 2.21 and the inhibition at 10 µM is 61.4%. On recombinant human MAO-A, the IC50 is 7.77 µM and the inhibition at 10 µM amounted to 53.3%.
With `O=C1/C(=C/c2cc(O)cc(O)c2)Oc2cc(O)ccc21` [Compound 1g, (Z)-2–(3,5-Dihydroxybenzylidene)-6-hydroxybenzofuran-3(2H)-one], on MAO-B, the half-maximal inhibitory concentration (IC50) was > 10 µM and the inhibition at 10 µM came out at 12.8%. Further, at recombinant human MAO-A, the IC50 is > 10 µM and the inhibition at 10 µM worked out at 35.7%.
As for `O=C1/C(=C/c2cc(O)c(O)c(O)c2)Oc2cc(O)ccc21` [Compound 1h], the IC50 against MAO-B and at recombinant human MAO-A was > 10 µM each time. Moreover, the inhibition at 10 µM came to 47.5% on MAO-B and 49.5% on recombinant human MAO-A.
With `COc1ccccc1/C=C1\Oc2cc(O)ccc2C1=O` [Compound 1i], on MAO-B, the IC50 worked out at 1.84 µM, the “Selectivity index for inhibition of MAO-B” value is on record as >54 and the inhibition at 10 µM was 75.5%. Further, at recombinant human MAO-A, the IC50 was > 100 µM and the inhibition at 10 µM stood at 5.49%.
In the case of `COc1cccc(/C=C2\Oc3cc(O)ccc3C2=O)c1` [Compound 1j], at MAO-B, the IC50 turned out to be 2.41 µM, the “Selectivity index for inhibition of MAO-B” value is >41 and the inhibition at 10 µM is 73.2%. On recombinant human MAO-A, the 50% inhibitory concentration (IC50) is > 100 µM and the inhibition at 10 µM was determined as 7.43%.
In the case of `COc1ccc(/C=C2\Oc3cc(O)ccc3C2=O)cc1` [Compound 1k], at MAO-B, the IC50 is 0.365 µM and the inhibition at 10 µM came out at 94.6%. Moreover, on recombinant human MAO-A, the half-inhibitory concentration (IC50) was 6.98 µM and the inhibition at 10 µM worked out at 53%.
Consider `COc1cccc(/C=C2\Oc3cc(O)ccc3C2=O)c1OC` [Compound 1l], for which, at MAO-B, inhibition was half-maximal at 3.52 µM (IC50), the “Selectivity index for inhibition of MAO-B” value is listed as >28 and the inhibition at 10 µM was 70.8%. Further, at recombinant human MAO-A, the IC50 was > 100 µM and the inhibition at 10 µM was -2.21%.
Turning to `COc1ccc(OC)c(/C=C2\Oc3cc(O)ccc3C2=O)c1` [Compound 1m], at MAO-B, the 50% inhibitory concentration (IC50) is > 10 µM and the inhibition at 10 µM stood at 46.3%. Besides, on recombinant human MAO-A, the IC50 was > 10 µM and the inhibition at 10 µM is -0.29%.
On to `COc1ccc(/C=C2\Oc3cc(O)ccc3C2=O)cc1OC` [Compound 1n], for which, at MAO-B, the IC50 was > 10 µM and the inhibition at 10 µM was 42.6%. On recombinant human MAO-A, the IC50 is > 10 µM and the inhibition at 10 µM worked out at 4.52%.
`COc1cc(/C=C2\Oc3cc(O)ccc3C2=O)cc(OC)c1` [Compound 1o]: at MAO-B, the IC50 is > 10 µM and the inhibition at 10 µM was found to be 41.2%. On recombinant human MAO-A, the IC50 is > 10 µM and the inhibition at 10 µM came to 0.37%.
In the case of `COCOc1ccc(/C=C2\Oc3cc(O)ccc3C2=O)cc1` [Compound 1q], on MAO-B, the IC50 was found to be 0.593 µM, the “Selectivity index for inhibition of MAO-B” value is on record as >168 and the inhibition at 10 µM came to 89%. Further, at recombinant human MAO-A, the IC50 was > 100 µM and the inhibition at 10 µM came out at 24.5%. Also, the “Impact on viability of BV2 cells” value with BV2 cells is “none of the tested concentrations”.
Consider `COc1ccc2c(c1)O/C(=C\c1ccccc1O)C2=O` [Compound 1r], for which the IC50 against MAO-B and at recombinant human MAO-A was > 10 µM each time. The inhibition at 10 µM at MAO-B was determined as 22.5%; at recombinant human MAO-A, 2.29%.
In the case of `COc1ccc2c(c1)O/C(=C\c1cccc(O)c1)C2=O` [Compound 1s], the IC50 at MAO-B and on recombinant human MAO-A was > 10 µM throughout. The inhibition at 10 µM on MAO-B turned out to be 48.9%; at recombinant human MAO-A it was 7.73%.
With `COc1ccc2c(c1)O/C(=C\c1ccc(O)cc1)C2=O` [Compound 1t], at MAO-B, the IC50 came out at 1.33 µM, the “Selectivity index for inhibition of MAO-B” value is >75 and the inhibition at 10 µM came out at 89.6%. Besides, on recombinant human MAO-A, the IC50 is > 100 µM and the inhibition at 10 µM was 8.54%.
With `COc1ccc2c(c1)O/C(=C\c1cccc(O)c1O)C2=O` [Compound 1u, (Z)-2–(2,3-Dihydroxybenzylidene)-6-methoxybenzofuran-3(2H)-one], the 50% inhibitory concentration (IC50) on MAO-B was found to be 2.41 µM; at recombinant human MAO-A, 7.04 µM. For the same molecule, the inhibition at 10 µM at MAO-B turned out to be 65%; at recombinant human MAO-A, 52.8%.
Consider `COc1ccc2c(c1)O/C(=C\c1ccc(O)cc1O)C2=O` [Compound 1v], for which, on MAO-B, the IC50 stood at 6.04 µM and the inhibition at 10 µM came out at 66.7%. At recombinant human MAO-A, the IC50 amounted to 8.2 µM and the inhibition at 10 µM is 55.7%.
In the case of `COc1ccc2c(c1)O/C(=C\c1ccc(O)c(O)c1)C2=O` [Compound 1w], the IC50 against MAO-B came to 2.41 µM; on recombinant human MAO-A, 5.62 µM. Besides, the inhibition at 10 µM worked out at 70.5% at MAO-B and 60.8% on recombinant human MAO-A.
Take `COc1ccc2c(c1)O/C(=C\c1ccccc1OC)C2=O` [Compound 1x]: at MAO-B, half-maximal inhibition (IC50) required 0.593 µM, the “Selectivity index for inhibition of MAO-B” value is given as >168 and the inhibition at 10 µM was determined as 89.5%. Also, at recombinant human MAO-A, the IC50 was > 100 µM and the inhibition at 10 µM amounted to 21.6%. In addition, the “Impact on viability of BV2 cells” value in the series with BV2 cells is recorded as “none of the tested concentrations”.
For the molecule `C[C@H](NCc1ccc(OCc2cccc(F)c2)cc1)C(N)=O` [Safinamide, safinamide, reference compound], the “Effect on LPS-induced PGE2 production by BV2 cells” value in series [1] is reported as “undesirable dose-dependent increase in PGE2 production”. In addition, in series [2], the “Effect on LPS-induced NO production by BV2 cells” value is recorded as “significant inhibition of NO production”. Further, the “Impact on viability of BV2 cells” value with BV2 cells is “cytotoxic effects”.

Usually IC50 stands for the concentration needed to halve the response being measured.
